Test results taken from patent US7612097B2, “Method for producing bactericidal pyridine compound and bactericidal pyridine compound” (Tama Kagaku Kogyo Co., Ltd., priority 2003, dated 2009).
In brackets after ≈: the same amount, converted by molar mass.

Key:
Format in all cases: cell-based
Bacillus cereus IFO 3001 [1] = assay: Bacteriostatic activity MIC, broth dilution; details: nutrient broth, 37° C., 24 hours
Description: (§1) Using benzalkonium chloride as a control compound, minimum inhibitory concentrations (MICs) were determined.
(§2) Each minimum inhibitory concentration (MIC) was determined as will be described hereinafter. Aliquots of a suspension of stationary-phase cells, the cell concentration of which had been adjusted to 10^6 cells/mL with nutrient broth in accordance with the general broth dilution method, were mixed with serially-diluted solutions of a compound, respectively. Subsequent to stationary culture at 37° C. for 24 hours, the MIC value was determined depending upon whether or not any growth had taken place.
(§3) As test microorganisms, ten (10) Gram-negative bacteria and six (6) Gram-positive bacteria were used.

[2] = test system: Bacillus subtilis ATCC 6633; assay: Bacteriostatic activity MIC, broth dilution; details: nutrient broth, 37° C., 24 hours
Description: as §1, §2, §3

[3] = test system: Bacillus subtilis IFO 3134; assay: Bacteriostatic activity MIC, broth dilution; details: nutrient broth, 37° C., 24 hours
Description: as §1, §2, §3

[4] = test system: Escherichia coli K12 OUT 8401; assay: Bacteriostatic activity MIC, broth dilution; details: nutrient broth, 37° C., 24 hours
Description: as §1, §2, §3

[5] = test system: Escherichia coli K12 W3110; assay: Bacteriostatic activity MIC, broth dilution; details: nutrient broth, 37° C., 24 hours
Description: as §1, §2, §3

[6] = test system: Klebsiella pneumoniae ATCC 13883; assay: Bacteriostatic activity MIC, broth dilution; details: nutrient broth, 37° C., 24 hours
Description: as §1, §2, §3

[7] = test system: Klebsiella pneumoniae ATCC 4352; assay: Bacteriostatic activity MIC, broth dilution; details: nutrient broth, 37° C., 24 hours
Description: as §1, §2, §3

[8] = test system: Micrococcus luteus IFO 12708; assay: Bacteriostatic activity MIC, broth dilution; details: nutrient broth, 37° C., 24 hours
Description: as §1, §2, §3

[9] = test system: Proteus mirabilis IFO 3849; assay: Bacteriostatic activity MIC, broth dilution; details: nutrient broth, 37° C., 24 hours
Description: as §1, §2, §3

Proteus rettgeri NIH 96 [10] = assay: Bacteriostatic activity MIC, broth dilution; details: nutrient broth, 37° C., 24 hours
Description: as §1, §2, §3

[11] = test system: Proteus vulgaris ATCC 13315; assay: Bacteriostatic activity MIC, broth dilution; details: nutrient broth, 37° C., 24 hours
Description: as §1, §2, §3

[12] = test system: Pseudomonas aeruginosa ATCC 10145; assay: Bacteriostatic activity MIC, broth dilution; details: nutrient broth, 37° C., 24 hours
Description: as §1, §2, §3

[13] = test system: Pseudomonas aeruginosa ATCC 27583; assay: Bacteriostatic activity MIC, broth dilution; details: nutrient broth, 37° C., 24 hours
Description: as §1, §2, §3

[14] = test system: Pseudomonas aeruginosa ATCC 3080; assay: Bacteriostatic activity MIC, broth dilution; details: nutrient broth, 37° C., 24 hours
Description: as §1, §2, §3

[15] = test system: Staphylococcus aureus IFO 12732; assay: Bacteriostatic activity MIC, broth dilution; details: nutrient broth, 37° C., 24 hours
Description: as §1, §2, §3

[16] = test system: Staphylococcus aureus JCI (MRSA); assay: Bacteriostatic activity MIC, broth dilution; details: nutrient broth, 37° C., 24 hours
Description: as §1, §2, §3

Bacillus cereus IFO 3001 [17] = assay: Bactericidal activity MBC, dilution method; details: 30° C., 30 min
Description: as §2, with “Subsequent to stationary culture at 37° C. for 24 hours, the MIC value was determined depending upon whether or not any growth had taken place.” left out
(§4) As a control compound, benzalkonium bromide was used. Using five (5) Gram-negative bacteria and four (4) Gram-positive bacteria as test microorganisms, minimum bactericidal concentrations (MBCs) were determined in a similar manner as described above.

[18] = test system: Bacillus subtilis ATCC 6633; assay: Bactericidal activity MBC, dilution method; details: 30° C., 30 min
Description: as §2, with “Subsequent to stationary culture at 37° C. for 24 hours, the MIC value was determined depending upon whether or not any growth had taken place.” left out
as §4

[19] = test system: Bacillus subtilis IFO 3134; assay: Bactericidal activity MBC, dilution method; details: 30° C., 30 min
Description: as §2, with “Subsequent to stationary culture at 37° C. for 24 hours, the MIC value was determined depending upon whether or not any growth had taken place.” left out
as §4

[20] = test system: Escherichia coli K12 W3110; assay: Bactericidal activity MBC, dilution method; details: 30° C., 30 min
Description: as §2, with “Subsequent to stationary culture at 37° C. for 24 hours, the MIC value was determined depending upon whether or not any growth had taken place.” left out
as §4

[21] = test system: Klebsiella pneumoniae ATCC 13883; assay: Bactericidal activity MBC, dilution method; details: 30° C., 30 min
Description: as §2, with “Subsequent to stationary culture at 37° C. for 24 hours, the MIC value was determined depending upon whether or not any growth had taken place.” left out
as §4

Proteus rettgeri NIH 96 [22] = assay: Bactericidal activity MBC, dilution method; details: 30° C., 30 min
Description: as §2, with “Subsequent to stationary culture at 37° C. for 24 hours, the MIC value was determined depending upon whether or not any growth had taken place.” left out
as §4

[23] = test system: Pseudomonas aeruginosa ATCC 27583; assay: Bactericidal activity MBC, dilution method; details: 30° C., 30 min
Description: as §2, with “Subsequent to stationary culture at 37° C. for 24 hours, the MIC value was determined depending upon whether or not any growth had taken place.” left out
as §4

[24] = test system: Staphylococcus aureus IFO 12732; assay: Bactericidal activity MBC, dilution method; details: 30° C., 30 min
Description: as §2, with “Subsequent to stationary culture at 37° C. for 24 hours, the MIC value was determined depending upon whether or not any growth had taken place.” left out
as §4

[25] = test system: Escherichia coli K12 OUT 8401; assay: Bactericidal activity MBC, dilution method; details: 30° C., 30 min
Description: as §2, §4

[26] = test system: Aspergillus niger IFO 6341; assay: Antimold MIC against eumycetes, broth dilution; details: Sabouraud medium, 30° C., 7 days
Description: (§5) As a control compound, TBZ (2-(4′-thiozolyl)benzimidazole) was used. Each minimum inhibitory concentration (MIC) was determined as will be described hereinafter. Following the general broth dilution method, each test microorganisms which had been precultured with Sabouraud medium was diluted with humectant-added, sterilized water to prepare a spore suspension. Aliquots (1 mL) of diluted solutions of a compound were mixed with 1-mL aliquots of the spore suspension, respectively. After incubating the mixtures at 30° C. for 1 week in an incubator, turbidity was relied upon to determine whether or not any growth had taken place. The turbidity-free lowest concentration was recorded as MIC.

[27] = test system: Aspergillus niger TSY 0013; assay: Antimold MIC against eumycetes, broth dilution; details: Sabouraud medium, 30° C., 7 days
Description: as §5

[28] = test system: Aspergillus terreus IFO 6346; assay: Antimold MIC against eumycetes, broth dilution; details: Sabouraud medium, 30° C., 7 days
Description: as §5

[29] = test system: Aureobasidium pullulans IFO 6353; assay: Antimold MIC against eumycetes, broth dilution; details: Sabouraud medium, 30° C., 7 days
Description: as §5

[30] = test system: Chaetomium globosum IFO 6347; assay: Antimold MIC against eumycetes, broth dilution; details: Sabouraud medium, 30° C., 7 days
Description: as §5

[31] = test system: Cladosporium cladosporioides IFO 6348; assay: Antimold MIC against eumycetes, broth dilution; details: Sabouraud medium, 30° C., 7 days
Description: as §5

[32] = test system: Gliocladium virides IFO 6355; assay: Antimold MIC against eumycetes, broth dilution; details: Sabouraud medium, 30° C., 7 days
Description: as §5

[33] = test system: Penicillium funiculosum IFO 6345; assay: Antimold MIC against eumycetes, broth dilution; details: Sabouraud medium, 30° C., 7 days
Description: as §5

Rhizopus nigricans SN 32 = assay: Antimold MIC against eumycetes, broth dilution; details: Sabouraud medium, 30° C., 7 days
Description: as §5

[34] = test system: Trichoderma virides IFO 30498; assay: Antimold MIC against eumycetes, broth dilution; details: Sabouraud medium, 30° C., 7 days
Description: as §5

Row | Molecule | MIC (Bacillus cereus IFO 3001 [1]) [µM] | MIC [2] [µM] | MIC [3] [µM] | MIC [4] [µM] | MIC [5] [µM] | MIC [6] [µM] | MIC [7] [µM] | MIC [8] [µM] | MIC [9] [µM] | MIC (Proteus rettgeri NIH 96 [10]) [µM] | MIC [11] [µM] | MIC [12] [µM] | MIC [13] [µM] | MIC [14] [µM] | MIC [15] [µM] | MIC [16] [µM] | MBC (Bacillus cereus IFO 3001 [17]) [µM] | MBC [18] [µM] | MBC [19] [µM] | MBC [20] [µM] | also measured
1 | CCCCCCCC[n+]1cccc(COCCCCOCc2ccc[n+](CCCCCCCC)c2)c1.[Br-].[Br-] [Compound 7-A] | 0.45 | 0.45 | 0.5 | 0.9 | 0.9 | 1.8 | 1.8 | 0.2 | 6.25 | 3.6 | 3.6 | 6.25 | 6.25 | 6.25 | 0.45 | 0.4 | 0.9 | 0.9 | 0.9 | 1.8 | MBC [21]: 3.6 µM; MBC (Proteus rettgeri NIH 96 [22]): 3.6 µM; MBC [23]: 3.6 µM; MBC [24]: 0.9 µM; MBC [25]: 1.8 µM; MIC [26]: 3.6 µM; MIC [27]: 3.6 µM; MIC [28]: 3.6 µM; MIC [29]: 3.6 µM; MIC [30]: 3.6 µM; MIC [31]: 3.6 µM; MIC [32]: 3.6 µM; MIC [33]: 3.6 µM; MIC (Rhizopus nigricans SN 32): 6.25 µM; MIC [34]: 6.25 µM
2 | CCCCCCCC[n+]1ccc(COCCCCOCc2cc[n+](CCCCCCCC)cc2)cc1.[Br-].[Br-] [Compound 7-B] | 0.45 | 0.45 | 0.45 | 0.9 | 0.9 | 3.6 | 1.8 | 0.2 | 6.25 | 3.6 | 3.6 | 3.6 | 3.6 | 6.25 | 0.45 | 0.45 | 0.9 | 0.9 | 0.9 | 1.8 | MBC [21]: 3.6 µM; MBC (Proteus rettgeri NIH 96 [22]): 3.6 µM; MBC [23]: 3.6 µM; MBC [24]: 0.9 µM; MBC [25]: 1.8 µM; MIC [26]: 3.6 µM; MIC [27]: 3.6 µM; MIC [28]: 3.6 µM; MIC [29]: 3.6 µM; MIC [30]: 3.6 µM; MIC [31]: 3.6 µM; MIC [32]: 3.6 µM; MIC [33]: 3.6 µM; MIC (Rhizopus nigricans SN 32): 6.25 µM; MIC [34]: 6.25 µM
3 | CCCCCCCCCC[n+]1cccc(COCCCCOCc2ccc[n+](CCCCCCCCCC)c2)c1.[Br-].[Br-] [Compound 7-C] | 0.2 | 0.1 | 0.2 | 0.45 | 0.45 | 1.8 | 0.45 | 0.1 | 1.8 | 0.9 | 0.45 | 1.8 | 1.8 | 0.9 | 0.2 | 0.45 | 0.2 | 0.2 | 0.45 | 0.45 | MBC [21]: 0.9 µM; MBC (Proteus rettgeri NIH 96 [22]): 0.9 µM; MBC [23]: 0.9 µM; MBC [24]: 0.2 µM; MBC [25]: 0.45 µM; MIC [26]: 1.8 µM; MIC [27]: 1.8 µM; MIC [28]: 0.9 µM; MIC [29]: 1.8 µM; MIC [30]: 0.9 µM; MIC [31]: 0.9 µM; MIC [32]: 1.8 µM; MIC [33]: 1.8 µM; MIC (Rhizopus nigricans SN 32): 1.8 µM; MIC [34]: 0.9 µM
4 | c1ccc2[nH]c(-c3cscn3)nc2c1 [TBZ, 2-(4′-thiozolyl)benzimidazole, reference compound] |  |  |  |  |  |  |  |  |  |  |  |  |  |  |  |  |  |  |  |  | MIC [26]: 25.6 µM (≈ 5.15 µg/mL); MIC [27]: 102.4 µM (≈ 20.6 µg/mL); MIC [28]: 25.6 µM (≈ 5.15 µg/mL); MIC [29]: 0.8 µM (≈ 0.161 µg/mL); MIC [30]: 3.2 µM (≈ 0.644 µg/mL); MIC [31]: 3.2 µM (≈ 0.644 µg/mL); MIC [32]: 3.2 µM (≈ 0.644 µg/mL); MIC [33]: 1.6 µM (≈ 0.322 µg/mL); MIC (Rhizopus nigricans SN 32): 102.4< μM; MIC [34]: 51.2 µM (≈ 10.3 µg/mL)
5 | benzalkonium chloride [reference compound] | 6.4 | 6.4 | 6.4 | 12.8 | 25.6 | 102.4 | 12.8 | 6.4 | 204.8 | 51.2 | 16.4 | 51.2 | 51.2 | 102.4 | 6.4 | 12.8 |  |  |  |  | 
6 | benzalkonium iodide [reference compound] |  |  |  |  |  |  |  |  |  |  |  |  |  |  |  |  | 25.6 | 0.8 | 1.6 | 204.8 | MBC [21]: 102.4 µM; MBC (Proteus rettgeri NIH 96 [22]): 51.2 µM; MBC [23]: 204.8 µM; MBC [24]: 6.4 µM; MBC [25]: 51.2 µM
